Reference: patent publication US20100062992A1 (SuperGen, Inc., priority 2004, published 2010)
Where a name gives a salt, the structure may show the parent alone.

Assays:
[1] = Hygroscopicity, % weight gain in 1 week at 56% and 98% relative humidity; type: physicochemical; conditions: one week at 56% / 98% RH
[2] = 0.05 M phosphate buffer, pH 7.0 and 2.5

In the case of Nc1ncn([C@@H]2O[C@H](CO)C(O)C2O)c(=O)n1 (stereo partly shown) [Compound 19, azacitidine mesylate], the “hygroscopicity compared with free base (in words)” value [1] is reported as “more hydroscopic than free azacitidine”, the “solution stability compared with free base (in words)” value [2] is reported as “slightly less than the free azacitidine base” and the “rate of dissolution compared with free base (in words)” value (1.0 mg in water) is reported as “less than the free azacitidine base”. For the same compound, the “Dissolution In water (1.0 mg/mL)” value (time to dissolve, with Sonication) was 1 min.
